Measurements published in patent EP0365818A1, “Immunological detection of atrazine and atrazine derivatives” (CIBA-GEIGY AG, priority 1988, dated 1990).

Legend:
Assay type in all cases: binding, Maus
[1] = tested on: MAb 4063-21-1 (ECACC 8808/2501); assay: two-step competitive ELISA (BSA-conjugated hapten on plate), anti-atrazine MAb; settings: for % cross-reactivity (b): (Atrazin conc. for 50 % inhibition)/(analogue conc. for 50 % inhibition) x 100; for I 50 ng/ml (a): inhibitor concentration for 50 % inhibition in competitive ELISA
From the text: (§1) Der prozentuale Anteil der Kreuzreaktivität soll im Rahmen dieser Erfindung definitionsgemäss durch die folgende Beziehung wiedergegeben werden: (Atrazin/Hydroxyatrazinkonzentration für 50 % Hemmung/Konzentration der s-Triazin-/Hydroxytriazinanalogen für 50 % Hemmung) x 100.
(§2) Eine 50 %ige Hemmung kann beispielsweise mit Hilfe eines kompetitiven ELISA Assays (vgl. Beispiel 8) bestimmt werden. Diese entspricht dann beispielsweise derjenigen Antigenkonzentration, die zu einer 50 %igen Hemmung der Antikörperbindung an das Träger-gebundene Antigen führt.
(§3) Der Nachweis von Atrazin und Hydroxyatrazin erfolgt mit Hilfe eines zweistufigen, kompetitiven ELISA-Tests.
(§4) BSA-konjugiertes Hapten wird zunächst in einem Natriumcarbonatpuffer (pH 9,6) (0,2 µg/Vertiefung) an Mikrotiterplatten adsorbiert und über Nacht bei einer Temperatur von 4°C inkubiert. Die restlichen freien Bindungsstellen des festen Trägermaterials werden dann durch Zugabe von BSA in Form einer 1 % Lösung blockiert.
(§5) Die Platten werden anschliessend mit PBS gewaschen, das mit 0,1 % (v/v) Polysorbat 20 angereichert ist (PBS-Tween).
(§6) 50 µl der zuvor gereinigten monoklonalen Antikörper (2 µg/ml) oder aber des Ueberstandes der Zellklone (in einer Verdünnung von 1:5 bis 1:22,5) werden a) mit 950 µl einer Standardlösung, die einen steigenden Anteil an Triazin bzw. Triazin-Analogen enthält, b) mit triazinhaltigen Wasserproben oder c) triazinhaltigen Bodenextrakten inkubiert. (Alle Verdünnungen werden in PBS-Tween vorgenommen).
(§7) Nach einer Inkubationszeit von 1 Stunde bei Raumtemperatur werden 200 µl des Gemisches zu jeder Vertiefung der Mikrotiterplatte zugegeben und der gesamte Ansatz wird für eine weitere Stunde inkubiert.
(§8) Die Vertiefungen werden anschliessend 5 x gewaschen und mit 100 µl/Vertiefung Ziegen-anti-Maus IgG Antikörper der konjugiert an alkalische Phosphatase vorliegt (Verdünnung 1:1500) beschickt und für einen Zeitraum von 1,5 Stunden inkubiert.
(§9) Nach erneutem Waschen werden 150 µl/Vertiefung des in 1 mg/ml Diethanolaminpuffer (1 mM, pH 9,8) gelösten Substrates p-Nitrophenylphosphat zu den Vertiefungen zugegeben.
(§10) Ein Farbumschlag, der proportional ist zur Menge an Antikörper, der mit dem an die Festphase gebundenen Antigen reagiert hat, wird bei einer Wellenlänge von 405 nm aufgezeichnet. Die Verdünnungen der einzelnen Proben werden so gewählt, dass man ohne Zugabe eines Inhibitors (Bo) Absorptionswerte in einem Bereich zwischen 0.3 und 0.5 erhält. Für die Kontrollen (ohne Antikörper und mit nicht nachweisbaren Mengen an Antigen) ergeben sich Werte von R ≦ 0.005. Alle Proben werden in dreifacher Ausfertigung bestimmt.
(§11) Zur Ermittlung der in einer Probe enthaltenen Menge an Atrazin/Hydroxyatrazin wird zunächst eine Eichkurve erstellt (Abb. 1), wobei B/Bo x 100 gegen die Konzentration an Inhibitor aufgetragen wird. (Bo bedeutet Absorptionsfähigkeit gemessen ohne Zugabe eines Triazininhibitors zum Antikörper, und B Absorptionsfähigkeit bei Zugabe verschieden konzentrierter Triazin-Inhibitoren) Der I₅₀-Wert gibt diejenige Konzentration des Antigens an, bei der die Antikörperbindung an die Festphase zu 50 % gehemmt wird. Der I₅₀-Wert wird mit Hilfe eines auf die vorliegenden Verhältnisse speziell angepassten ENZFITTER (Leatherbarrow, Elsevier-Biosoft)Kurvenkalkulationsprogramms bestimmt, basierend auf einer 4 Parameter umfassenden logistischen Kurve (Raab GM, 1983). Auch die quantitative Atrazin bzw. Hydroxyatrazinbestimmung in Boden- oder Wasserproben im Rahmen des ELISA wird mit Hilfe des ENZFITTER-Programms durchgeführt, wobei die Anpassung der Kurve auf Standards basiert, die auf jeder Mikrotiterplatte mitlaufen.

[2] = tested on: MAb 4009-85-3 (ECACC 8808/2503); assay: two-step competitive ELISA (BSA-conjugated hapten on plate), anti-hydroxyatrazine MAb; settings: for % cross-reactivity (c): (Hydroxyatrazin conc. for 50 % inhibition)/(analogue conc. for 50 % inhibition) x 100; for I 50 ng/ml (a): inhibitor concentration for 50 % inhibition in competitive ELISA
From the text: as §1, §2, §3, §4, §5, §6, §7, §8, §9, §10, §11

[3] = tested on: Mab 4009-77-20 (ECACC 8808/2502); assay: as above; settings: for % cross-reactivity (c): (Hydroxyatrazin conc. for 50 % inhibition)/(analogue conc. for 50 % inhibition) x 100; for I 50 ng/ml (a): inhibitor concentration for 50 % inhibition in competitive ELISA
From the text: as §1, §2, §3, §4, §5, §6, §7, §8, §9, §10, §11

Structure (SMILES) | % cross-reactivity (b) [1] | I 50 ng/ml (a) [1] | % cross-reactivity (c) [2] | I 50 ng/ml (a) [2] | I 50 ng/ml (a) ([2]; listed as Hydroxyatrazin) [ng/mL] | % cross-reactivity (c) [3] | I 50 ng/ml (a) [3] | I 50 ng/ml (a) ([3]; listed as Hydroxyatrazin) [ng/mL]
CCNc1nc(NCC)nc(SC)n1 [Simetryn] | 1,7% | 27 ng/mL |  |  |  |  |  | 
CCNc1nc(O)nc(NC(C)C)n1 [OH-Atrazin, Hydroxyatrazin] | 2,1% | 21 ng/mL | 100,0% | 0,95 ng/ml | 0.95 | 100,0% | 0,5 ng/ml | 0.5
CCNc1nc(NC(C)C)nc(SC)n1 [Ametryn] | 5,0% | 9 ng/mL | <0,1% | >1000 ng/mL |  | <0,05% | >1000 ng/mL | 
CCNc1nc(Cl)nc(N(CC)CC)n1 [Trietazin] | 11,3% | 4 ng/mL |  |  |  |  |  | 
CCNc1nc(O)nc(NCC)n1 [OH-Simazin, Hydroxysimazin] | 0,3% | 180 ng/mL | 1,5% | 65 ng/mL |  | 41,7% | 1,2 ng/ml | 
CCNc1nc(Cl)nc(NC(C)(C)C)n1 [Terbuthylazin] | 5,0% | 9 ng/mL |  |  |  |  |  | 
CCNc1nc(Cl)nc(NC(C)C)n1 [Atrazin] | 100,0% |  | <0,1% | >1000 ng/mL |  | <0,05% | >1000 ng/mL | 
CC(C)Nc1nc(Cl)nc(NC(C)C)n1 [Propazin] | 90,0% | 0,5 ng/ml | <0,1% | >1000 ng/mL |  | <0,05% | >1000 ng/mL | 
CNc1nc(O)nc(NC(C)C)n1 [OH-Desmetryn, Hydroxydesmetryn] | 0,1% | 360 ng/mL | 11,9% | 8 ng/mL |  | 71,4% | 0,7 ng/ml | 
CCNc1nc(Cl)nc(NCC)n1 [Simazin] | 2,5% | 18 ng/mL |  |  |  |  |  | 
COc1nc(NC(C)C)nc(NC(C)C)n1 [Prometon] | 75,0% | 0,6 ng/ml |  |  |  |  |  | 
CC(C)Nc1nc(O)nc(NC(C)C)n1 [OH-Propazin, Hydroxypropazin] | 8,2% | 5,5 ng/ml | 100,0% | 0,95 ng/ml |  | 83,3% | 0,6 ng/ml | 
CCNc1nc(NC(C)C)nc(OC)n1 [Atraton] | 6,4% | 7 ng/mL | <0,1% | >1000 ng/mL |  | <0,05% | >1000 ng/mL | 
CNc1nc(NC(C)C)nc(SC)n1 [Desmetryn] | 0,5% | 90 ng/mL |  |  |  |  |  | 
CSc1nc(NC(C)C)nc(NC(C)C)n1 [Prometryn] | 56,3% | 0,8 ng/ml |  |  |  |  |  | 
CCNc1nc(O)nc(NC(C)(C)C)n1 [OH-Terbuthylazin, Hydroxyterbuthylazin] | 5,6% | 8 ng/mL | 5,0% | 19 ng/mL |  | 15,2% | 3,3 ng/ml | 
